In PubChem BioAssay (NCI):
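Exposure lasted 48 hours, with cells grown in 96-well plates and compounds tested at five concentrations. Definition used: TGI = concentration required for complete inhibition of growth.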

Columns and labels:
Test in all cases: inhibition of tumour cell growth, NCI panel, 48 h
KM12 colon = tested on: KM12 colon
HCT-15 colon = tested on: HCT-15 colon
HOP-18 NSCLC = tested on: HOP-18 NSCLC
SK-MEL-2 melanoma = tested on: SK-MEL-2 melanoma
HL-60(TB) leukemia = tested on: HL-60(TB) leukemia
A498 renal = tested on: A498 renal
IGROV1 ovarian = tested on: IGROV1 ovarian
HOP-92 NSCLC = tested on: HOP-92 NSCLC
SNB-75 CNS = tested on: SNB-75 CNS
A549 NSCLC = tested on: A549 NSCLC
LOX IMVI melanoma = tested on: LOX IMVI melanoma
HCT-116 colon = tested on: HCT-116 colon
786-0 renal = tested on: 786-0 renal
COLO 205 colon = tested on: COLO 205 colon
OVCAR-4 ovarian = tested on: OVCAR-4 ovarian
OVCAR-3 ovarian = tested on: OVCAR-3 ovarian
UO-31 renal = tested on: UO-31 renal
NCI-H460 lung = tested on: NCI-H460 lung
K-562 leukemia = tested on: K-562 leukemia
HOP-62 NSCLC = tested on: HOP-62 NSCLC
DMS 273 small cell lung = tested on: DMS 273 small cell lung
RXF-631 renal = tested on: RXF-631 renal
NCI-H522 lung = tested on: NCI-H522 lung
HT29 colon = tested on: HT29 colon
ACHN renal = tested on: ACHN renal
TK-10 renal = tested on: TK-10 renal
LXFL 529 NSCLC = tested on: LXFL 529 NSCLC
KM20L2 colon = tested on: KM20L2 colon
SNB-19 CNS = tested on: SNB-19 CNS
SW-620 colon = tested on: SW-620 colon
UACC-257 melanoma = tested on: UACC-257 melanoma
SK-OV-3 ovarian = tested on: SK-OV-3 ovarian
M19-MEL melanoma = tested on: M19-MEL melanoma
SF-268 CNS = tested on: SF-268 CNS
MALME-3M melanoma = tested on: MALME-3M melanoma
RPMI-8226 leukemia = tested on: RPMI-8226 leukemia
NCI-H226 lung = tested on: NCI-H226 lung
SF-539 CNS = tested on: SF-539 CNS
DLD-1 colon = tested on: DLD-1 colon
CAKI-1 renal = tested on: CAKI-1 renal
EKVX NSCLC = tested on: EKVX NSCLC
OVCAR-8 ovarian = tested on: OVCAR-8 ovarian
SK-MEL-28 melanoma = tested on: SK-MEL-28 melanoma
UACC-62 melanoma = tested on: UACC-62 melanoma
DMS 114 small cell lung = tested on: DMS 114 small cell lung
SK-MEL-5 melanoma = tested on: SK-MEL-5 melanoma
SN12C renal = tested on: SN12C renal
M14 melanoma = tested on: M14 melanoma
MOLT-4 leukemia = tested on: MOLT-4 leukemia
NCI-H23 lung = tested on: NCI-H23 lung
CCRF-CEM leukemia = tested on: CCRF-CEM leukemia
SNB-78 CNS = tested on: SNB-78 CNS
HCC-2998 colon = tested on: HCC-2998 colon
OVCAR-5 ovarian = tested on: OVCAR-5 ovarian
SF-295 CNS = tested on: SF-295 CNS
RXF 393 renal = tested on: RXF 393 renal
U251 CNS = tested on: U251 CNS

Measured: TGI

NC(CCCNCc1ccccc1)C(=O)O (stereo not given)
not listed: SNB-78 CNS | HCC-2998 colon | OVCAR-5 ovarian | SF-295 CNS | RXF 393 renal | U251 CNS
> 100 µM: all other assays above

Cc1cc(C)nc(NS(=O)(=O)c2ccc(Nc3c4ccccc4nc4c(C(=O)N5CCN(CCO)CC5)ccc(Cl)c34)cc2)n1
not listed: HOP-18 NSCLC | LOX IMVI melanoma | NCI-H522 lung | ACHN renal | LXFL 529 NSCLC | SW-620 colon | DLD-1 colon | EKVX NSCLC
> 100 µM: all other assays above

S=c1nc(COc2ccc(Cl)cc2)[nH][nH]1
not listed: HOP-18 NSCLC | EKVX NSCLC
> 100 µM: all other assays above
